Measurements reported in patent US20160038449A1, “MULTI-COMPONENT PHARMACEUTICALS FOR TREATING DIABETES” (Complexa, Inc., priority 2010, published 2016).

How the values were obtained:
WT mice [1] = test: Blood glucose level of fed WT mice after administration; assay type: in vivo; conditions: for blood glucose level: fed WT mice, level maintained over the study (FIG. 1), vehicle control about 170 mg/dL
Method: Oleic acid, nitro-oleic acid, rosiglitazone, or a vehicle control were administered to fed WT mice, and the blood glucose level of these mice was monitored.

ob/ob mice [2] = test: Blood glucose level of ob/ob mice after administration; assay type: in vivo; conditions: ob/ob mice (FIG. 2)
From the text: Similar results are observed in experiments involving ob/ob mice.

[3] = parameters: species or system mice; conditions: mouse, in vivo
Method: In addition to reducing blood glucose levels, substantially no increase in body weight was observed when nitro-oleic acid is administered to mice as compared to mice administered a vehicle control, oleic acid, or rosiglitazone.

WT mice [4] = test: Insulin sensitivity: blood glucose after administration of insulin in WT mice; assay type: in vivo; conditions: 120 minute time course (FIG. 5)
ob/ob mice [5] = test: Insulin sensitivity: blood glucose after administration of insulin in ob/ob mice; assay type: in vivo; conditions: 120 minute time course (FIG. 6)

| Compound | blood glucose level (WT mice [1]) | change of blood glucose level over the course of the study (ob/ob mice [2]) | change of body weight over the course of the study [3] | blood glucose levels after administration of insulin (WT mice [4]) | blood glucose levels after administration of insulin (ob/ob mice [5]) | change of blood glucose level over the course of the study (WT mice [1]; fed WT mice (FIG. 1)) |
| --- | --- | --- | --- | --- | --- | --- |
| 9- or 10-nitro octadecenoic acid [nitro-oleic acid] | about 125 mg/dL | effectively reduced the blood glucose level over the course of the study | initially decreased (days 0-10), and then remained substantially constant over the second half of the study | initial drop in blood glucose levels after administration of insulin followed by an increase in blood glucose back to normal levels about 120 minutes after the administration of insulin | substantial decrease in blood glucose levels over the course of the 120 minute time period |  |
| CCCCCCCC/C=C\CCCCCCCC(=O)O [oleic acid] |  | increased blood glucose level over the course of the study | steady increase in body weight over the course of the study |  | increased over the 120 minute time course | increased blood glucose levels over the course of the study |
| CN(CCOc1ccc(CC2SC(=O)NC2=O)cc1)c1ccccn1 (centres unmarked) [rosiglitazone] | about 150 mg/dL |  | steady increase in body weight over the course of the study |  |  |  |
